target: T1, N-terminally GST-tagged human full length recombinant Mps-1 kinase (Homo sapiens, UniProt P33981); test: Mps-1 kinase assay (TR-FRET); type: biochemical; details: 10 μM ATP, 1 μM peptide substrate, 60 min at 22° C., read-out: Mps1 IC50
T1 construct: N-terminally GST-tagged human full length recombinant Mps-1 kinase; purchased Invitrogen, Karslruhe, Germany PV4071
T1 sequence (P33981 1-857): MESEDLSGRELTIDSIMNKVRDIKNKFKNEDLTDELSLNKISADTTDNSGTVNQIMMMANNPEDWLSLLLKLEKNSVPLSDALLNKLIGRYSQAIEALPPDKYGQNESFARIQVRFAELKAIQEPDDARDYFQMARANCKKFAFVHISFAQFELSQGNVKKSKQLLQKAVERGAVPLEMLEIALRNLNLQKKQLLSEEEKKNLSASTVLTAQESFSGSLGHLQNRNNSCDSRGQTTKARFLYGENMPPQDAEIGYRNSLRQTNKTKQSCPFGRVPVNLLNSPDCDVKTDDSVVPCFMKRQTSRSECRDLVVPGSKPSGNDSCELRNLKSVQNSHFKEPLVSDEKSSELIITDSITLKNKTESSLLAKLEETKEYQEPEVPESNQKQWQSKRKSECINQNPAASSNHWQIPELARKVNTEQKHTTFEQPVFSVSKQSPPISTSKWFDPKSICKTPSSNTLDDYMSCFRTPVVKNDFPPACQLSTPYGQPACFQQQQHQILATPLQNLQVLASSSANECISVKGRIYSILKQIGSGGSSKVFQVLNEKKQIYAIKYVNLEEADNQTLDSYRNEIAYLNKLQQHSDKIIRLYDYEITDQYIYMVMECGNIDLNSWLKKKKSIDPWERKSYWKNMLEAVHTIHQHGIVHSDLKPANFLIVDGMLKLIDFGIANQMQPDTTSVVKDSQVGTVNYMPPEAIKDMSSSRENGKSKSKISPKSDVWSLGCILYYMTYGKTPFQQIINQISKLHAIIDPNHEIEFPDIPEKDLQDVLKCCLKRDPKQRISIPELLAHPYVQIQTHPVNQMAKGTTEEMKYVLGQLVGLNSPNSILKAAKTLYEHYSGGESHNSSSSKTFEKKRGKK
Description: The human kinase Mps-1 phosphorylates a biotinylated substrate peptide. Detection of the phosphorylated product is achieved by time-resolved fluorescence resonance energy transfer (TR-FRET) from Europium-labelled anti-phospho-Serine/Threonine antibody as donor to streptavidin labelled with cross-linked allophycocyanin (SA-XLent) as acceptor. Compounds are tested for their inhibition of the kinase activity.
N-terminally GST-tagged human full length recombinant Mps-1 kinase (purchased from Invitrogen, Karslruhe, Germany, cat. no PV4071) was used. As substrate for the kinase reaction a biotinylated peptide of the amino-acid sequence […] (C-terminus in amide form, purchased from Biosynthan GmbH, Berlin) was used.
The concentration of Mps-1 in the assay was adjusted to the activity of the enzyme lot and was chosen appropriate to have the assay in the linear range, typical enzyme concentrations were in the range of about 1 nM (final conc. in the 5 μl assay volume).
The resulting mixture was incubated 1 h at 22° C. to allow the binding of the phosphorylated peptide to the anti-phospho(Ser/Thr)-Europium-antibody. Subsequently the amount of phosphorylated substrate was evaluated by measurement of the resonance energy transfer from the Europium-labelled anti-phospho(Ser/Thr) antibody to the Streptavidin-XLent.

SMILES | IC50 [nM]
Cc1cc(-c2cnc3c(NCC4CC[S+]([O-])CC4)cc(Oc4ccc(F)cc4)nn23)ccc1C(=O)NC1CC1 (mixture of isomers) [Example 295B, N-cyclopropyl-4-[6-(4-fluorophenoxy)-8-({[(cis/trans)-1-oxidotetrahydro-2H-thiopyran-4-yl]methyl}amino)imidazo[1,2-b]pyridazin-3-yl]-2-methylbenzamide] | 0.2

same assay, conditions: Mps1 IC50 [nM], 10 μM ATP, 1 μM peptide substrate, 60 min at 22° C.

SMILES | IC50 [nM]
CC(=O)NCCNc1cc(Oc2cccc(F)c2)nn2c(-c3ccc(C(=O)NC4CC4)c(C)c3)cnc12 [Example 504, 4-[8-{[2-(acetylamino)ethyl]amino}-6-(3-fluorophenoxy)imidazo[1,2-b]pyridazin-3-yl]-N-cyclopropyl-2-methyl-benzamide] | 0.2
Cc1cc(-c2cnc3c(NCC(C)(C)O)cc(O/C=C(/F)C(F)(F)CO)nn23)ccc1C(=O)NC1CC1 [Example 241B, N-cyclopropyl-4-(8-[(2-hydroxy-2-methylpropyl)amino]-6-{[(1E)-2,3,3-trifluoro-4-hydroxybut-1-en-1-yl]oxy}imidazo[1,2-b]pyridazin-3-yl)-2-methylbenzamide] | 3.4
CCNC(=O)c1ccc(-c2cnc3c(NCCN4CCOCC4)cc(Oc4ccccc4)nn23)cc1C [Example 593, N-ethyl-2-methyl-4-(8-{[2-(morpholin-4-yl)ethyl]amino}-6-phenoxyimidazo[1,2-b]pyridazin-3-yl)benzamide] | 9
Cc1cc(-c2cnc3c(NCC(C)(C)O)cc(-c4ccc(CO)cc4)nn23)ccc1C(=O)NC1CC1 [Example 155, N-cyclopropyl-4-{6-[4-(hydroxymethyl)phenyl]-8-[(2-hydroxy-2-methylpropyl)amino]imidazo[1,2-b]pyridazin-3-yl}-2-methylbenzamide] | 3.6
COc1ccc(Nc2cc(NCCC(F)(F)F)c3ncc(-c4ccc(C(=O)NC5CC5)c(C)c4)n3n2)cc1 [Example 425, N-cyclopropyl-4-{6-[(4-methoxyphenyl)amino]-8-[(3,3,3-trifluoropropyl)amino]imidazo[1,2-b]pyridazin-3-yl}-2-methylbenzamide] | 0.1
Cc1cc(-c2cnc3c(NCCC(F)(F)F)cc(C4CC4)nn23)ccc1C(=O)NC1CC1 [Example 48, N-cyclopropyl-4-{6-cyclopropyl-8-[(3,3,3-trifluoropropyl)amino]imidazo[1,2-b]pyridazin-3-yl}-2-methylbenzamide] | 1.4
CC(C)(O)CNc1cc(-c2ccccc2)nn2c(-c3ccc(C(=O)NC4CC4)cc3)cnc12 [Example 14, N-cyclopropyl-4-{8-[(2-hydroxy-2-methylpropyl)amino]-6-phenylimidazo[1,2-b]pyridazin-3-yl}benzamide] | 1.2
CC(C)CNc1cc(-c2ccc(C(=O)NC3CC3)cc2)nn2c(-c3ccc(C(=O)NC4CC4)cc3)cnc12 [Example 116, 4,4′-{8-[(2-Methylpropyl)amino]imidazo[1,2-b]pyridazine-3,6-diyl} bis(N-cyclopropylbenzamide)] | 4
CC(C)CNc1cc(-c2ccc3[nH]c(=O)[nH]c3c2)nn2c(-c3ccc(C(=O)NC4CC4)cc3)cnc12 [Example 151, N-cyclopropyl-4-{8-[(2-methylpropyl)amino]-6-(2-oxo-2,3-dihydro-1H-benzimidazol-5-yl)imidazo[1,2-b]pyridazin-3-yl}benzamide] | 3.1
Cc1cc(-c2cnc3c(NCCC(N)=O)cc(Oc4cccc(F)c4)nn23)ccc1C(=O)NC1CC1 [Example 549, 4-{8-[(3-amino-3-oxopropyl)amino]-6-(3-fluorophenoxy)imidazo[1,2-b]pyridazin-3-yl}-N-cyclopropyl-2-methyl-benzamide] | 0.2
Cc1cc(-c2cnc3c(NCCCC(C)O)cc(-c4ccccc4CO)nn23)ccc1C(=O)NC1CC1 (racemic) [Example 342, (RS)-N-cyclopropyl-4-{6-[2-(hydroxy-methyl)phenyl]-8-[(4-hydroxy-pentyl)amino]imidazo[1,2-b]pyridazin-3-yl}-2-methylbenzamide] | 6.9
Cc1ccc(F)cc1Sc1cc(NCCC(F)(F)F)c2ncc(-c3ccc(C(=O)NC4CC4)c(C)c3)n2n1 [Example 269, N-cyclopropyl-4-{6-[(5-fluoro-2-methylphenyl)sulfanyl]-8-[(3,3,3-trifluoropropyl)amino]imidazo[1,2-b]pyridazin-3-yl}-2-methylbenzamide] | 0.3
Cc1cc(-c2cnc3c(NCC4CCC(C)(O)CC4)cc(-c4ccccc4CO)nn23)ccc1C(=O)NC1CC1 (stereo not drawn) [Example 340, N-cyclopropyl-4-(8-{[(4-hydroxy-4-methylcyclohexyl)methyl]amino}-6-[2-(hydroxymethyl)phenyl]imidazo[1,2-b]pyridazin-3-yl)-2-methylbenzamide] | 3.3
Cc1ccc(F)cc1Nc1cc(NCCC(F)(F)F)c2ncc(-c3ccc(C(=O)NC4CC4)c(C)c3)n2n1 [Example 375, N-cyclopropyl-4-{6-[(5-fluoro-2-methylphenyl)amino]-8-[(3,3,3-trifluoropropyl)amino]imidazo[1,2-b]pyridazin-3-yl}-2-methylbenzamide] | 0.1
Cc1ccc(F)c(Nc2cc(NCC(C)(C)O)c3ncc(-c4ccc(C(=O)NC5CC5)c(C)c4)n3n2)c1 [Example 383, N-cyclopropyl-4-{6-[(2-fluoro-5-methylphenyl)amino]-8-[(2-hydroxy-2-methylpropyl)amino]imidazo[1,2-b]pyridazin-3-yl}-2-methylbenzamide] | 0.3
CNC(=O)c1ccc(-c2cnc3c(NCCC(F)(F)F)cc(Oc4cccc(F)c4)nn23)cc1C [Example 575, 4-{6-(3-fluorophenoxy)-8-[(3,3,3-trifluoropropyl)a-mino]imidazo[1,2-b]pyridazin-3-yl}-N,2-dimethylbenzamide] | < 1
COc1cc(C(=O)NC2CC2)ccc1-c1cnc2c(NCC(C)(C)O)cc(Sc3ccccc3)nn12 [Example 51A, N-cyclopropyl-4-{8-[(2-hydroxy-2-methylpropyl)amino]-6-(phenylsulfanyl)imidazo[1,2-b]pyridazin-3-yl}-3-methoxybenzamide] | 58
C/C=C(\C)c1cc(NCC(C)(C)O)c2ncc(-c3ccc(C(=O)NC4CC4)c(C)c3)n2n1 [Example 25, 4-{6-[(2E)-But-2-en-2-yl]-8-[(2-hydroxy-2-methylpropyl)amino]imidazo[1,2-b]pyridazin-3-yl}-N-cyclopropyl-2-methylbenzamide] | 13.1
CNC(=O)Nc1ccc(-c2cc(NCC(C)C)c3ncc(-c4ccc(C(=O)NC5CC5)cc4)n3n2)cc1 [Example 146, N-cyclopropyl-4-(6-{4-[(methylcarbamoyl)amino]phenyl}-8-[(2-methylpropyl)amino]imidazo[1,2-b]pyridazin-3-yl)benzamide] | 3.8
CCNC(=O)c1ccc(-c2cnc3c(NCCC(F)(F)F)cc(Oc4ccc(OC)cc4F)nn23)cc1C [Example 602, N-ethyl-4-{6-(2-fluoro-4-methoxyphenoxy)-8-[(3,3,3-trifluoropropyl)a-mino]imidazo[1,2-b]pyridazin-3-yl}-2-methylbenzamide] | < 1
CC(C)CNc1cc(-c2ccc(NC(=O)N(C)C)cc2)nn2c(-c3ccc(C(=O)NC4CC4)cc3)cnc12 [Example 150, N-cyclopropyl-4-(6-{4-[(dimethylcarbamoyl)amino]phenyl}-8-[(2-methylpropyl)amino]imidazo[1,2-b]pyridazin-3-yl)benzamide] | 3.7
C=C(c1ccccc1)c1cc(NCCC(F)(F)F)c2ncc(-c3ccc(C(=O)NC4CC4)c(C)c3)n2n1 [Example 482, N-cyclopropyl-2-methyl-4-{6-(1-phenylethenyl)-8-[(3,3,3-trifluoropropyl)amino]imidazo[1,2-b]pyridazin-3-yl}benzamide] | 0.6
Cc1cc(F)ccc1Sc1cc(NCC(C)(C)O)c2ncc(-c3ccc(C(=O)NC4CC4)c(C)c3)n2n1 [Example 69, N-cyclopropyl-4-{6-[(4-fluoro-2-methylphenyl)sulfanyl]-8-[(2-hydroxy-2-methylpropyl)amino]imidazo[1,2-b]pyridazin-3-yl}-2-methylbenzamide] | 1

From patent US9255100B2 (BAYER INTELLECTUAL PROPERTY GMBH, priority 2010, dated 2016)
